Measured values published in ChEMBL document CHEMBL1122198, “Synthesis and dopamine receptor binding of exo- and endo-2-amino-6,7-dihydroxybenzonorbornene, rigid analogues of 2-amino-6,7-dihydroxytetrahydronaphthalene” (J Med Chem, 1982).

Target: Dopamine receptor (Bos taurus, UniProt Q95136+P20288)
Test: Evaluated for the inhibition of binding of [3H]DA (dopamine) to dopamine receptor in calf striatal homogenate

**Q.** `NC1CCc2cc(O)c(O)cc2C1` (stereo unspecified) was tested. Which IC50 did it give?
**A.** The IC50 was 6 nM.
